These results are taken from PMC7854751, “Estimation of radiation dose from ingested tritium in humans by administration of deuterium-labelled compounds and food” (Scientific Reports, 2021).

Each structure is given as a SMILES string. “And” between values parts separate entries of the source, which are not always exact repeats. Identical values can stand only once. Like-named read-outs stand apart in the source and are kept apart here. Marks after values point to notes of the source that are not given here.

On the set-up of data set [1]: method as in PMID 32424291. The conditions noted are these: cited from earlier work; for d1, ratio of organic compounds to inorganic compounds immediately after administration: 13C-labelled compound experiments, mean ± standard deviation ref 31.
The conditions of data set [2]: intravenous injection ref 28; cited from earlier work.
The nature of data set [3]: D/H ratios in urine after oral administration of D-labelled compounds and soybean, OBD metabolic model fit. The data set is classed as in vivo, human. As to the method:
(§1) The total number of volunteers was 42, although some dropped out of the experiment, for various reasons. The data from these volunteers were eliminated. This study lasted 4 years; administration experiments were conducted from September to January, and each volunteer participated in one of the 4 years. […]
All D-labelled and ^13C-labelled compounds were purchased from Cambridge Isotopes, Inc. (Tewksbury). In each D-labelled molecule, hydrogen bound to carbon was uniformly replaced by D. Such D is not exchangeable to hydrogen in free body water after administration until it is metabolised to HDO, and is called non-exchangeable OBD (Nx-OBD). Exchangeable hydrogen, which was not bound to carbon, such as hydroxyl group hydrogen, was not replaced by D. In each ^13C-labelled compound, ^13C was uniformly labelled.
The D-labelled soybean was harvested three times. The harvested soybeans were boiled, freeze-dried, and then homogenised. The soy powder product was orally administered. To measure the D/H ratio, the soy powder was first immersed in drinking water, to replace exchangeable OBD (Ex-OBD), which was not bound to carbon. After the second freeze-drying process, the D/H ratio was measured using a mass spectrometer (Iso Prime 100; Elementar, Langenselbold, Germany). Buried tritium is defined as the tritium in a large biomolecule that remains in the molecule after rinsing samples with tritium-free water, despite its exchangeable position in the molecule. A fraction of buried deuterium was considered to remain in soybean powder. […] Therefore, we considered that effect of the amount of buried deuterium on the measured D/H ratio of soy powder was negligible. The hydrogen content of the soybean powders (gH/gDW) was measured using a gas chromatograph (NCH-22F; Sumika Chemical Analysis Service, Oosaka, Japan). The OBD content of the soybean powders (gOBD/gDW) were calculated from their D/H ratio and hydrogen content, and are summarised in Table 7.
(§2) Urine and breath samples were periodically collected from days − 7 to 119, where the first day of the administration was defined as day 0. Urine samples were collected daily, when the volunteers rose in the morning, until day 28, then every two or three days until day 119. Additional samples were collected frequently, after administration. Urine samples were collected at every urination until bedtime, on days of administration. Breath samples were collected immediately prior to the administration, every 20 min from 12:30 to 17:10, and then hourly from 18:00 until bedtime.
(§3) Urine was distilled, and the condensed water was collected for the measurement of D/H ratio, using a mass spectrometer (Iso Prime 100; Elementar, Langenselbold, Germany). Breath samples were collected using an airtight bag. The samples were analysed within 3 days. After purifying the CO2 in the breath using a gas chromatograph (MAT GC; Thermo Electron, Waltham, MA, USA), the ^13C/^12C ratio was measured using a mass spectrometer (Dalta V Advantage; Thermo Electron, Waltham, MA, USA).
(§4) The increments were calculated of D/H and ^13C/^12C ratios above the background values measured for the samples before administration. The ratios were normalised to the same dosage (1 g D or ^13C per 70 kg body weight). When the D/H or ^13C/^12C ratios were below the limits (90% upper confidence limits of the background fluctuation), to cut off the data and any subsequent data were discarded.
(§5) A metabolic model was developed, for each volunteer. For volunteers in the glucose, alanine, palmitic acid, and soybean groups, the model structure of the OBD shown in Fig. 1 was adopted, while for volunteers in the D2O group, the model structure for HDO was adopted. For each model, parameters were determined using the least squares method, using Microsoft Excel version 2007. The detailed procedures have been described previously. […]

Data set [4] can be described thus: D/H ratios in urine after oral administration of D2O, HDO metabolic model fit. Type of data set: in vivo, human. The conditions noted are these: for mean half-life for the FWD compartment of the HDO models: mean and standard deviation; for Rr, recovery ratio to the administered deuterium / k1, transfer rate from OBD compartment to FWD compartment / k2, transfer rate from FWD compartment to OBD compartment / ka, transfer rate from DT compartment to FWD compartment / ke, excretion rate from FWD compartment: once orally. As to the method: as §1, §2, §3, §4, §5

On the set-up of data set [5]: method as in PMID 21947005. The conditions noted are these: once orally; individual volunteer; presumed value, no clear second component; from mean residence time of carbon in adipose tissue ref 41; cited from earlier work.

Take `CCCCCCCC/C=C\CCCCCCCC(=O)O` [^13C-labelled oleic acid]: in data set [1], the “d1, ratio of organic compounds to inorganic compounds immediately after administration” value (shortened to “d1, ratio of organic compounds”) is 0.35 ± 0.11 and the “reported ratio of unsaturated fatty acids (d1) by the 13C-labelled experiment” value was 35 ± 11%.
Consider `O=[14C]([O-])O.[Na+]` [^14C-bicarbonate], for which the “half-life of carbon dioxide” value in data set [2] was 5 min.
Take `NCC(=O)O` [^13C-labelled glycine]: the “d1, ratio of organic compounds” value in data set [1] was 0.29 ± 0.04.
Consider `CCCCC/C=C\C/C=C\CCCCCCCC(=O)O` [^13C-labelled linoleic acid], for which, in data set [1], the “d1, ratio of organic compounds” value is recorded as 0.29 ± 0.12 and the “reported ratio of unsaturated fatty acids (d1) by the 13C-labelled experiment” value is given as 29 ± 12%.
For `OC[C@H]1OC(O)[C@H](O)[C@@H](O)[C@@H]1O` (stereo partly drawn) [D-labelled glucose], the “ke, excretion rate from FWD compartment” value is 0.073 day⁻¹ in data set [3] (once orally, all volunteers average); 0.067 day⁻¹ in data set [3] (once orally, female average); 0.072 d^−1 (2×) and 0.081 d^−1 and 0.057 d^−1 and 0.073 d^−1 and 0.049 d^−1 in data set [3] (once orally, individual female volunteers); 0.085 d^−1 (2×) and 0.097 d^−1 and 0.050 d^−1 and 0.078 d^−1 in data set [3] (once orally, individual male volunteers); 0.079 day⁻¹ in data set [3] (once orally, male average).
As for `CCCCCCCCCCCCCCCC(=O)O` [D-labelled palmitic acid], the “ke, excretion rate from FWD compartment” value is 0.070 day⁻¹ in data set [3] (palmitic acid group, orally once daily for four successive days, all volunteers average); 0.083 day⁻¹ in data set [3] (palmitic acid group, orally once daily for four successive days, female average); 0.059 day⁻¹ and 0.064 day⁻¹ and 0.11 day⁻¹ and 0.099 day⁻¹ in data set [3] (palmitic acid group, orally once daily for four successive days, individual female volunteers); 0.059 day⁻¹ and 0.055 day⁻¹ and 0.078 day⁻¹ and 0.063 day⁻¹ and 0.040 day⁻¹ in data set [3] (palmitic acid group, orally once daily for four successive days, individual male volunteers); 0.059 day⁻¹ in data set [3] (palmitic acid group, orally once daily for four successive days, male average).
As for `[2H]O[2H]` [D2O], the “mean half-life for the FWD compartment of the HDO models” value turned out to be 240 ± 72 h in data set [4] (combined group of volunteers), 240 ± 72 h in data set [4] (females (n = 6)) and 240 ± 48 h in data set [4] (males (n = 3)). For the same compound, the “Rr, recovery ratio to the administered deuterium” value in data set [4] (all volunteers average) is 0.93; in data set [4] (female average), 0.93; in data set [4] (individual female volunteers), 1.0 and 0.99 and 0.70 and 0.97 (2×) and 0.93; in data set [4] (individual male volunteers), 0.91 and 1.0 and 0.92; in data set [4] (male average), 0.94. Also, the “k1, transfer rate from OBD compartment to FWD compartment” value was 0.010 day⁻¹ in data set [4] (all volunteers average); 0.011 day⁻¹ in data set [4] (female average); 0.0067 day⁻¹ and 0.0074 day⁻¹ and 0.019 day⁻¹ in data set [4] (individual female volunteers); 0.0091 day⁻¹ and 0.0083 day⁻¹ in data set [4] (individual male volunteers); 0.0087 day⁻¹ in data set [4] (male average). The “k2, transfer rate from FWD compartment to OBD compartment” value in data set [4] (all volunteers average) was 0.010 day⁻¹; in data set [4] (female average) it was 0.013 day⁻¹; in data set [4] (individual female volunteers), 0.016 day⁻¹ and 0.010 day⁻¹; in data set [4] (individual male volunteers), 0.0092 day⁻¹ and 0.0065 day⁻¹; in data set [4] (male average) it was 0.0079 day⁻¹; in data set [5], 0.0017* d^−1. Also, the “ka, transfer rate from DT compartment to FWD compartment” value was 26 day⁻¹ in data set [4] (all volunteers average); 28 day⁻¹ in data set [4] (female average); 8.9 day⁻¹ and 23 day⁻¹ and 92 day⁻¹ and 14 day⁻¹ and 6.4 day⁻¹ and 21 day⁻¹ in data set [4] (individual female volunteers); 39 day⁻¹ and 8.6 day⁻¹ and 21 day⁻¹ in data set [4] (individual male volunteers); 23 day⁻¹ in data set [4] (male average). Moreover, the “ke, excretion rate from FWD compartment” value is 0.071 day⁻¹ in data set [4] (all volunteers average); 0.071 day⁻¹ in data set [4] (female average); 0.056 day⁻¹ and 0.098 day⁻¹ and 0.081 day⁻¹ and 0.043 day⁻¹ and 0.078 day⁻¹ and 0.072 day⁻¹ in data set [4] (individual female volunteers); 0.059 day⁻¹ and 0.063 day⁻¹ and 0.090 day⁻¹ in data set [4] (individual male volunteers); 0.071 day⁻¹ in data set [4] (male average).
Turning to `N[C@@H](Cc1ccccc1)C(=O)O` [^13C-labelled phenylalanine], the “d1, ratio of organic compounds” value in data set [1] is 0.25 ± 0.04.
